# Reference: PMC5874716, “Antimicrobial Peptides for Topical Treatment of Osteomyelitis and Implant-Related Infections: Study in the Spongy Bone” (Pharmaceuticals, 2018)
# Non-standard residues stand in square brackets, D forms with d. Residues, ends and D or L forms follow the SMILES beside them. βAla = NCCC(=O)O
# Tests used:
# [1] = tested on: C. albicans ATCC MYA-2876; assay: Biofilm formation on bone cement (Palacos r) model implants in infected femur head; set-up: species or system Candida albicans; settings: microbes infiltrated from a hole between implants, 2 days, single experiment
# Excerpt: (§1) The poly(methyl methacrylate)-based bone cement with or without AMPs was implanted either inside infected holes or inside non-infected holes. In the latter case, the microbes infiltrated towards the implant from a hole made between them at roughly equal distance from each (Figure 3). This would simulate the authentic situation in which the pathogens can infect an orthopaedic implant by spreading through the bloodstream or contiguously from areas of infection. We evaluated the experiments on the basis of the amounts of microbes released from the biofilms supposedly formed on the surfaces of the implants that were removed from the infected bone samples.
# (§2) The bone samples with bored holes inside were prepared and handled as above. The bone cement (Palacos®r, Hereaus Medical GmbH, Wehrheim, Germany) with AMP incorporated was prepared by swift and thorough mixing of the polymer powder component (poly-methylacrylate, methyl methacrylate, 125 mg) and AMP (10 mg) or antibiotic (10 mg) with the liquid monomer (methyl methacrylate, N,N-dimethyl-p-toluidine, hydroquinone and colorant E141, 70 μL). The resulting elastic paste was pressed using a 2 mL plastic syringe into two bored holes, where it polymerized and solidified. The paste without peptide for filling of the remaining two holes was prepared similarly by mixing the powder component (125 mg) and liquid component (68 μL). […]
# Micrococcus luteus = assay: Drop diffusion test; format: cell-based; settings: RP-HPLC peak of bone marrow extract containing the three defensins; not shown
# Excerpt: In several cases when an all-D isomeric peptide alone, or in combination with its parent L-isomer in a 1:4 ratio in the blend with the carrier were applied to the infected hole, we observed a zero microbial count. We suppose that the contribution of D-isomeric peptides (II, VII, X, XII) to bacterial eradication was due to their resistance to proteases either exerted by bacteria or originated from the cells of the bone tissue. In these cases, we detected intact all-D peptide in the extract of the fillings (recovered from the infected hole after completing the experiment) by Reversed-Phase (RP)-HPLC analysis (not shown). On the other hand, the RP-HPLC analyses of the extracts of the fillings containing solely L-peptides indicated partial to complete digestion of peptides by proteases. Nevertheless, we assume that in all cases presented in Table 3 and Figure 2, it was the fast killing effect of AMPs on bacteria that played a conclusive role in eradicating the infection in the bone samples. When carrying out the experiments, we had to take into account that the bacterial load in an infected hole also could be reduced by components of the bone marrow immune system, including blood cells such as neutrophils. […] In one of the RP-HPLC peaks, we detected by mass spectrometry the presence of three human α-defensins HNP1, HNP2, and HNP3 [32] […]
# [2] = tested on: MRSA clinical isolate from University Hospital in Motol (MRSA (M)); assay: microbe, parasite or virus in culture; format: cell-based; settings: clinical isolate Motol; Bioscreen C; at least three times in duplicates
# Protocol: (§3) Femur heads (ca. 70 pieces) taken from patients during hip replacement surgery were periodically purchased in the period between 2014–2017 as discarded from the bone tissue bank at University Hospital in Motol, Prague, Czech Republic. The reason for the replacements by artificial prosthesis was the worn out cartilage on the surface of their heads. Bone samples were stored at −80 °C under standard conditions of certified tissue banks. In the laboratory, they were kept at +5 °C overnight and then at room temperature for several hours before they could be used for the experiments. The experiments with this material were approved by the Ethics Committee for Multi-Centric Clinical Trials of the University Hospital Motol, Reference No: EK-655/15. Methicillin-resistant S. aureus (MRSA 6271) ATCC 43300 and P. aeruginosa (5482) ATCC 27853 were purchased from the Czech National Collection of Type Cultures, National Institute of Public Health, Prague, Czech Republic. Methicillin-resistant S. aureus (MRSA (L)) and P. aeruginosa (L) were obtained as multi-resistant clinical isolates from Liberec Regional Hospital, Liberec, Czech Republic. Methicillin-resistant S. aureus (MRSA (M)), E. faecalis and S. epidermidis were obtained as clinical isolates from University Hospital in Motol, Prague. Candida albicans (F7-39/IDE99) came from the mycological collection of the Faculty of Medicine, Palacky University, Olomouc, Czech Republic. C. albicans ATCC MYA-2876, C. tropicalis ATCC 750 and C. glabrata DSY565 were kindly provided by Dr. Hana Sychrová from the Institute of Physiology, Academy of Sciences of the Czech Republic, Prague. Vancomycin hydrochloride, gentamicin sulfate, ceftriaxone disodium salt, amphotericin B, fluconazole, and clotrimazole were obtained from Sigma-Aldrich, Prague, Czech Republic.
# (§4) MIC values for peptides were established by observing growth of treated bacteria in HONEYCOMB 100-well microtiter plates (Helsinki, Finland) using a Bioscreen C instrument (Oy Growth Curves, Helsinki, Finland) as previously described. Haemolytic activity of peptides expressed as the concentration of a peptide required for lysis of 50% of human erythrocytes in the assay (LC50) was measured using a Tecan infinite M200 PRO reader (Tecan Austria GmbH, Grödig, Austria). Blood samples for determining haemolytic activity were obtained from healthy volunteers.
# [3] = tested on: MRSA clinical isolate from Liberec Regional Hospital (MRSA (L)); assay: microbe, parasite or virus in culture; format: cell-based; settings: clinical isolate Liberec; Bioscreen C; at least three times in duplicates
# Protocol: as §3, §4
# [4] = tested on: E. faecalis clinical isolate (Motol); assay: microbe, parasite or virus in culture; format: cell-based; settings: clinical isolate Motol; Bioscreen C; at least three times in duplicates
# Protocol: as §3, §4
# [5] = tested on: P. aeruginosa (5482) ATCC 27853; assay: microbe, parasite or virus in culture; format: cell-based; settings: Bioscreen C; at least three times in duplicates
# Protocol: as §3, §4
# [6] = tested on: S. epidermidis clinical isolate (Motol); assay: microbe, parasite or virus in culture; format: cell-based; settings: clinical isolate Motol; Bioscreen C; at least three times in duplicates
# Protocol: as §3, §4
# MRSA 6271 (ATCC 43300) = assay: microbe, parasite or virus in culture; format: cell-based; settings: growth in 100-well microtiter plates, Bioscreen C; tested at least three times in duplicates
# Protocol: as §3, §4
# [7] = tested on: P. aeruginosa clinical isolate from Liberec Regional Hospital; assay: microbe, parasite or virus in culture; format: cell-based; settings: clinical isolate Liberec; Bioscreen C; at least three times in duplicates
# Protocol: as §3, §4
# Candida albicans = format: cell-based; settings: Bioscreen C; at least three times in duplicates
# Protocol: as §3, §4
# C. glabrata DSY565 = assay: Biofilm formation on bone cement (Palacos r) model implants in infected femur head; set-up: species or system Candida glabrata; settings: microbes infiltrated from a hole between implants; 2 days; single experiment
# Excerpt: as §1, §2
# human erythrocytes = assay: Haemolysis assay; format: cell-based; settings: concentration causing lysis of 50% of human red blood cells; at least three times in duplicates
# Protocol: as §4
# P. aeruginosa 5482 = assay: Experimental model of bone infection (human femur head, ChronOS Inject carrier); set-up: species or system Pseudomonas aeruginosa; settings: ChronOS Inject 200 mg blended with 10 mg peptide; 2 days at room temperature; single experiment on one femoral head
# Protocol: We usually drilled three to four holes into the spongy part of each bone sample (as space allowed) and then filled the holes with the suspension of microbes (Figure 1a). The next day, the foci of the infection set up in the holes were treated (i) with carrier alone as a control, (ii) with carrier blended with AMP, or (iii) in some cases with a carrier blended with an antibiotic for comparison (Figure 1b). The results of infection eradication were evaluated after two days by counting the bacterial colonies (Figures S1–S3 as illustrative examples) found in the swab taken from each hole after the fillings were removed (Figure 1c).
# Three to four holes ca 4 mm in diameter and 8 mm deep were drilled using a surgical spoon at the side of the resection into the spongy part of the femur head. This bone was placed into a beaker cushioned with sterile gauze, which was then drenched with sterile physiological solution. The suspension of selected bacteria (S. aureus, S. epidermidis, P. aeruginosa) in the concentration of 10^9 colony forming units (CFU)/mL in Luria Bertani (LB) medium and E. faecalis in brain-heart infusion (BHI) medium was consecutively infused into each hole in the bone while taking care not to overfill the holes (Figure 1a). […] Following overnight incubation, the numbers of bacterial colonies were counted. The bacterial load was expressed as CFU per hole. […]
Molecule,"CFU/Implant, C. albicans c [1]",antimicrobial activity in drop diffusion tests (Micrococcus luteus),"Antimicrobial Activity MIC, MRSA b [2] [µM]","Antimicrobial Activity MIC, MRSA a [3] [µM]","Antimicrobial Activity MIC, E. f. b [4] [µM]","Antimicrobial Activity MIC, P. a. 5482 [5] [µM]","Antimicrobial Activity MIC, S. e. b [6] [µM]","Antimicrobial Activity MIC, MRSA 6271 (MRSA 6271 (ATCC 43300)) [µM]","Antimicrobial Activity MIC, P. a. a [7] [µM]","Antimicrobial Activity MIC, C. a. (Candida albicans) [µM]","CFU/Implant, C. glabrata (C. glabrata DSY565)",Haemolytic Activity LC50 (human erythrocytes) [µM],"Colony Forming Units (CFU)/Hole, P. a. 5482 (P. aeruginosa 5482)"
"OC(Cn1cncn1)(Cn1cncn1)c1ccc(F)cc1F [Fluconazole, fluconazole, reference compound]",3.6 × 10^4 CFU/implant,–,–,–,–,–,–,–,–,–,–,–,–
"CYCRIPACIAGERRYGTCIYQGRLWAFCC [HNP2, human α-defensin detected in bone marrow extract of the femur head]",–,exhibited antimicrobial activity,–,–,–,–,–,–,–,–,–,–,–
CC[C@H](C)[C@H](NC(=O)[C@H](CCCCN)NC(=O)[C@H](CCCCN)NC(=O)[C@@H](CC(C)C)NC(=O)[C@H](CC(C)C)NC(=O)[C@H](CCCCN)NC(=O)[C@H](CCSC)NC(=O)[C@H](Cc1c[nH]c2ccccc12)NC(=O)[C@H](CCCCN)NC(=O)CN)C(=O)N[C@@H](CC(C)C)C(=O)N[C@@H](CCCCN)C(N)=O [VIII] (H-GKWMKL[dL]KKILK-NH2; N-terminus assumed),6.0 × 10^3 CFU/implant,–,32.0,13.3,>100,5.0,4.0,18.7,32.0,8.0,2.4 × 10^3 CFU/implant,>400,–
CC[C@H](C)[C@H](NC(=O)[C@H](CCCCN)NC(=O)[C@H](CCCCN)NC(=O)[C@H](CC(C)C)NC(=O)[C@H](CC(C)C)NC(=O)[C@H](CCCCN)NC(=O)[C@H](CCSC)NC(=O)[C@H](Cc1c[nH]c2ccccc12)NC(=O)[C@H](CCCCN)NC(=O)CCN)C(=O)N[C@@H](CC(C)C)C(=O)N[C@@H](CCCCN)C(N)=O [XI] (H-[βAla]KWMKLLKKILK-NH2; N-terminus assumed),–,–,10.0,5.7,59.0,2.8,2.8,11.3,7.0,11.3,–,270,2.0 × 10^5 CFU/hole
"Clc1ccccc1C(c1ccccc1)(c1ccccc1)n1ccnc1 [Clotrimazole, clotrimazole, reference compound]",–,–,–,–,–,–,–,–,–,–,1.2 × 10^6 CFU/implant,–,–
